In one data set the test system is RSV A2. Description: RSV plaque reduction assay. The class given is cell-based, respiratory syncytial virus (RSV). Particulars: human respiratory syncytial virus, HepG2; Hep-G2 cells, RSV A2, mean of at least two experiments. On the procedure: Compounds were subjected to RSV plaque reduction assays according to the following protocol.
Hep-G2 cells (ECACC, 85011430) were passaged in flasks and seeded in 24-well plates in DMEM containing antibiotics and supplemented with 10% FBS. During inoculation and subsequent incubation, cells were cultured in DMEM containing 2% FBS. 100 plaque forming unit/well of RSV (RSV A2 ECACC, 0709161v) was mixed with eight serial dilutions of compound. Subsequently, 100 μL of the virus/compound mixtures was added to confluent Hep-G2 cell monolayers. The cells and virus/compound mixtures were incubated at 37° C. in a humidified 5% CO2 incubator for 2 h prior to removal of the inoculum and addition of 1 mL of overlay (DMEM containing 2% FBS and 0.8% CMC) containing compound dilutions. The cells and were incubated at 37° C. in a humidified 5% CO2 incubator for 2 days.
Cells were washed with PBS before adding 75/25% v/v EtOH/MeOH, for 3 min. Fixative was removed and plates were washed with PBS. A pre-titrated amount of the primary antibody was added in 200 μL PBS/2% milk powder, and plates incubated for 90 min at 37° C. The plates were washed 3 times with PBS/0.05% Tween20 before addition of rabbit anti-goat horse radish peroxidase in 200 μL PBS/2% milk powder, and incubated for 1 h at 37° C. Following three wash steps with PBS/0.05% Tween20, 200 μL ready-to-use TrueBlue was added and plates were incubated at rt for 10-15 min before washing with water. After removal of water, plates were air-dried in the dark.
Plates were scanned and analysed using the Immunospot S6 Macro analyser, which is equipped with BioSpot analysis software for counting immunostained plaques (virospots). Plaque counts were used to calculate % infection relative to the mean of the plaque count in the virus control wells for RSV. The EC50 value was calculated as 50% reduction in signal, respectively, by interpolation of inhibition curves fitted with a 4-parameter nonlinear regression with a variable slope in Dotmatics. Plaque EC50 and cell toxicity CC50 values are a mean of at least two experiments and figures are rounded to whole units.

Data set [1] in a line: Liver microsomal stability, dog. The class given is in vitro ADME. The settings on record: pH 7.4; dog liver microsomes, 0.5 mg/mL protein, 1 μM compound, NADPH; >80% remaining at 45 min denoted >140; read-out: Liver Microsomal Stability: t1/2 (min); dog. How it is done: (§1) Compounds were subjected to the following assays to investigate liver microsomal stability, permeability and plasma protein binding.
(§2) Pooled liver microsomes were purchased from a reputable commercial supplier and stored at −80° C. prior to use. Microsomes (final protein concentration 0.5 mg/mL), 0.1 M phosphate buffer pH 7.4 and test compound (final substrate concentration 1 μM; final DMSO concentration 0.25%) were pre-incubated at 37° C. prior to the addition of NADPH (final concentration 1 mM) to initiate the reaction. The final incubation volume was 50 μL. A control incubation was included for each compound tested where 0.1 M phosphate buffer pH 7.4 was added instead of NADPH (minus NADPH). Two control compounds were included with each species. All incubations were performed singularly for each test compound. Each compound was incubated for 0, 5, 15, 30 and 45 min. The control (minus NADPH) was incubated for 45 min only. The reactions were stopped by transferring incubate into acetonitrile at the appropriate time points, in a 1:3 ratio. The termination plates are centrifuged at 3,000 rpm for 20 min at 4° C. to precipitate the protein. Following protein precipitation, the sample supernatants were combined in cassettes of up to 4 compounds, internal standard added, and samples analysed by LC-MS/MS. From a plot of ln peak area ratio (compound peak area/internal standard peak area) against time, the gradient of the line was determined. Subsequently, half-life (t1/2) and intrinsic clearance (CLint) were calculated.

Data set [2] can be described thus: Liver microsomal stability, human. The class given is in vitro ADME. Particulars: pH 7.4; human liver microsomes, 0.5 mg/mL protein, 1 μM compound, NADPH; >80% remaining at 45 min denoted >140; read-out: Liver Microsomal Stability: t1/2 (min); human. How it is done: as §1, §2
(Microsomes from liver hold many membrane-bound enzymes, among them those of drug oxidation.)

Data set [3] is described as follows: Liver microsomal stability, rat. The class given is in vitro ADME. The settings on record: pH 7.4; rat liver microsomes, 0.5 mg/mL protein, 1 μM compound, NADPH; >80% remaining at 45 min denoted >140; read-out: Liver Microsomal Stability: t1/2 (min); rat. How it is done: as §1, §2
The nature of the next data set: Cell cytotoxicity CC50. The class given is cell-based. The settings on record: human; mean of at least two experiments.

pEC50: −log10 of the molar value. Bounds are passed on as bounds.

By pEC50 is commonly meant the EC50 on a negative log10 scale, so that one unit is a factor of ten. Read a low pEC50 as a large EC50. As a reminder, the CC50 is the concentration at which the toxic effect on the cells reaches its halfway point. `CCn1ncc(C(=O)N[C@H]2N=C(c3ccccc3)c3ccccc3NC2=O)c1-c1ccc(NC)nc1F` [Example 1, 1-Ethyl-5-[2-fluoro-6-(methylamino)pyridin-3-yl]-N-[(3S)-2-oxo-5-phenyl-1,3-dihydro-1,4-benzodiazepin-3-yl]pyrazole-4-carboxamide]: the pEC50 with RSV A2 was 7.04. Further, the half-life is 11.1 min in data set [1], 48.1 min in data set [2] and 24.4 min in data set [3]. The compound further returned a CC50 in “Cell cytotoxicity CC50” above 25 µM.
With `CCNc1ccc(-c2c(C(=O)N[C@H]3N=C(c4ccccc4)c4ccccc4NC3=O)cnn2CC)c(F)n1` [Example 2, 1-Ethyl-5-[6-(ethylamino)-2-fluoropyridin-3-yl]-N-[(3S)-2-oxo-5-phenyl-1,3-dihydro-1,4-benzodiazepin-3-yl]pyrazole-4-carboxamide], in the data set with RSV A2, the pEC50 was 7.06. In addition, the half-life is 23.9 min in data set [1], 44.4 min in data set [2] and 30.3 min in data set [3]. In “Cell cytotoxicity CC50”, this compound showed a CC50 above 25 µM.
For the compound `CCn1ncc(C(=O)N[C@H]2N=C(c3ccccc3)c3ccccc3NC2=O)c1-c1ccc(NC2CCC2)nc1F` [Example 5, 5-[6-(Cyclobutylamino)-2-fluoropyridin-3-yl]-1-ethyl-N-[(3S)-2-oxo-5-phenyl-1,3-dihydro-1,4-benzodiazepin-3-yl]pyrazole-4-carboxamide], in the data set on RSV A2, the pEC50 is 7.06. Also, the half-life was determined as 45.7 min in data set [1], 50.1 min in data set [2] and 47.4 min in data set [3]. The CC50 in the data set “Cell cytotoxicity CC50” was above 25 µM.
In the data set with RSV A2, `CCn1ncc(C(=O)N[C@H]2N=C(c3ccccc3)c3ccccc3NC2=O)c1-c1ccc(NC2(C)CC2)nc1F` [Example 6, 1-Ethyl-5-[2-fluoro-6-[(1-methylcyclopropyl)amino]pyridin-3-yl]-N-[(3S)-2-oxo-5-phenyl-1,3-dihydro-1,4-benzodiazepin-3-yl]pyrazole-4-carboxamide] had a pEC50 of 7.49. Also, the results for the half-life in data set [1], in data set [2] and in data set [3] were 72.5 min, 23 min and 31.5 min, respectively. The CC50 in the data set “Cell cytotoxicity CC50” was above 25 µM.
The matching figures for `CCn1ncc(C(=O)N[C@H]2N=C(c3ccccc3)c3ccccc3NC2=O)c1-c1ncc(NC2CC2)cc1F` [Example 7, 5-[5-(Cyclopropylamino)-3-fluoropyridin-2-yl]-1-ethyl-N-[(3S)-2-oxo-5-phenyl-1,3-dihydro-1,4-benzodiazepin-3-yl]pyrazole-4-carboxamide]: 7.16, 85.8 min, 97 min, 595 min and above 25 µM.
In the case of `CCn1ncc(C(=O)N[C@H]2N=C(c3ccccc3)c3ccccc3NC2=O)c1-c1ncc(NC(C)C)cc1F` [Example 8, 1-Ethyl-5-[3-fluoro-5-(propan-2-ylamino)pyridin-2-yl]-N-[(3S)-2-oxo-5-phenyl-1,3-dihydro-1,4-benzodiazepin-3-yl]pyrazole-4-carboxamide], the pEC50 in the data set on RSV A2 is 7.49. The values for the half-life in data set [1], in data set [2] and in data set [3] were 104 min, 193 min and above 140 min, respectively. The compound also had a CC50 in the data set “Cell cytotoxicity CC50” above 25 µM.
Consider `CCn1ncc(C(=O)N[C@H]2N=C(c3ccccc3)c3ccccc3NC2=O)c1-c1ccc(NC(C)C)cc1F` [Example 9, 1-Ethyl-5-[2-fluoro-4-(propan-2-ylamino)phenyl]-N-[(3S)-2-oxo-5-phenyl-1,3-dihydro-1,4-benzodiazepin-3-yl]pyrazole-4-carboxamide], for which the negative-log EC50 (pEC50) with RSV A2 was 7.14. Moreover, the half-life in data set [1] was found to be 89.1 min; in data set [2] it was 220 min; in data set [3], 141 min. Further, in “Cell cytotoxicity CC50”, the CC50 is above 25 µM.
For the compound `CC(C)Nc1ccc(-c2c(C(=O)N[C@H]3N=C(c4ccccc4)c4cccc(F)c4NC3=O)cnn2C2COC2)c(F)n1` [Example 41, N-[(3S)-9-Fluoro-2-oxo-5-phenyl-1,3-dihydro-1,4-benzodiazepin-3-yl]-5-[2-fluoro-6-(propan-2-ylamino)pyridin-3-yl]-1-(oxetan-3-yl)pyrazole-4-carboxamide], in the data set with RSV A2, the pEC50 is 7.04. The compound further showed a CC50 in “Cell cytotoxicity CC50” above 25 µM.
The matching figures for `CC(C)c1ccc(-c2c(C(=O)N[C@H]3N=C(c4ccccc4)c4cccc(F)c4NC3=O)cnn2C2CCOCC2)c(F)c1` [Example 45, 5-(2-Fluoro-4-propan-2-ylphenyl)-1-(oxan-4-yl)-N-[(3S)-9-fluoro-2-oxo-5-phenyl-1,3-dihydro-1,4-benzodiazepin-3-yl]pyrazole-4-carboxamide]: 7.42 and above 25 µM.
On to `CCc1ccc(-c2c(C(=O)N[C@H]3N=C(c4ccccc4)c4ccccc4NC3=O)cnn2C2CCOCC2)c(F)c1` [Example 46, 5-(4-Ethyl-2-fluorophenyl)-1-(oxan-4-yl)-N-[(3S)-2-oxo-5-phenyl-1,3-dihydro-1,4-benzodiazepin-3-yl]pyrazole-4-carboxamide], for which the pEC50 with RSV A2 is 7.47. In “Cell cytotoxicity CC50”, this compound registered a CC50 above 25 µM.
For `CCc1ccc(-c2c(C(=O)N[C@H]3N=C(c4ccccc4)c4ccccc4NC3=O)cnn2C2CCOCC2)c(F)n1` [Example 52, 5-(6-Ethyl-2-fluoropyridin-3-yl)-1-(oxan-4-yl)-N-[(3S)-2-oxo-5-phenyl-1,3-dihydro-1,4-benzodiazepin-3-yl]pyrazole-4-carboxamide], in that order: 7.06 and above 25 µM.
For `CCOc1nn(CC)c(-c2ccccc2F)c1C(=O)N[C@H]1N=C(c2ccccc2)c2ccccc2NC1=O` [Example 54, 3-Ethoxy-1-ethyl-5-(2-fluorophenyl)-N-[(3S)-2-oxo-5-phenyl-1,3-dihydro-1,4-benzodiazepin-3-yl]pyrazole-4-carboxamide], in that order: 7.29 and above 25 µM.
In turn, `O=C(N[C@H]1N=C(c2ccccc2)c2cccc(F)c2NC1=O)c1cnn(C2CCOCC2)c1-c1ccc(NC2CC2)nc1` [Example 56, 5-[6-(Cyclopropylamino)pyridin-3-yl]-1-(oxan-4-yl)-N-[(3S)-9-fluoro-2-oxo-5-phenyl-1,3-dihydro-1,4-benzodiazepin-3-yl]pyrazole-4-carboxamide] showed a pEC50 in the data set with RSV A2 of 7.11. In the data set “Cell cytotoxicity CC50”, this compound registered a CC50 above 25 µM.
Take `CC(C)Nc1ccc(-c2c(C(=O)N[C@H]3N=C(c4ccccc4)c4cccc(F)c4NC3=O)cnn2C2CCOCC2)cn1` [Example 58, 1-(Oxan-4-yl)-5-[6-(propan-2-ylamino)pyridin-3-yl]-N-[(3S)-9-fluoro-2-oxo-5-phenyl-1,3-dihydro-1,4-benzodiazepin-3-yl]pyrazole-4-carboxamide]: the negative-log EC50 (pEC50) with RSV A2 was 7.00. In the data set “Cell cytotoxicity CC50”, the CC50 is above 25 µM.
For `CCc1ccc(-c2c(C(=O)N[C@H]3N=C(c4ccccc4)c4cccc(F)c4NC3=O)cnn2C2CCN(C)CC2)c(F)c1` [Example 59, 5-(4-Ethyl-2-fluorophenyl)-1-(1-methylpiperidin-4-yl)-N-[(3S)-9-fluoro-2-oxo-5-phenyl-1,3-dihydro-1,4-benzodiazepin-3-yl]pyrazole-4-carboxamide], in that order: 6.97 and 15.2 µM.
